In ChEMBL document CHEMBL3860102, “Structure-Cytotoxicity Relationships of Analogues of N14-Desacetoxytubulysin H” (J Med Chem, 2016):

Assays:
[1] = Cytotoxicity against human DU145 cells incubated for 72 hrs by alamar blue abased assay; type: functional; details: DU-145, 72 h
[2] = Cytotoxicity against human MDA-MB-231 cells incubated for 72 hrs by alamar blue abased assay; type: functional; details: MDA-MB-231, 72 h
[3] = Cytotoxicity against human HCT116 cells incubated for 72 hrs by alamar blue abased assay; type: functional; details: HCT-116, 72 h
[4] = Cytotoxicity against human KB-3-1 cells; type: functional, cell-based
[5] = Cytotoxicity against human T98 cells; type: functional, cell-based
[6] = Cytotoxicity against mouse L929 cells; type: functional, cell-based
[7] = Cytotoxicity against human SW480 cells; type: functional, cell-based

CC[C@H](C)[C@H](NC(=O)[C@@H](C)N(C)C)C(=O)N(C)[C@H](C[C@@H](OC(C)=O)c1nc(C(=O)N[C@@H](Cc2ccccc2)C[C@H](C)C(=O)O)cs1)C(C)C
GI50 [1]: 4.5 nM | GI50 [2]: 3.9 nM | GI50 [3]: 2.5 nM

CC[C@H](C)[C@H](NC(=O)[C@H]1CCCCN1C)C(=O)N(C)[C@H](C[C@@H](OC(C)=O)c1nc(C(=O)N[C@H](CN)Cc2ccccc2)cs1)C(C)C
GI50 [1]: 2.7 nM | GI50 [2]: 9 nM | GI50 [3]: 5.9 nM

CC[C@H](C)[C@H](NC(=O)[C@H]1CC2CCN1CC2)C(=O)N(C)[C@H](C[C@@H](OC(C)=O)c1nc(C(=O)N[C@@H](Cc2ccccc2)C[C@H](C)C(=O)O)cs1)C(C)C
GI50 [1]: 428 nM | GI50 [2]: 196 nM | GI50 [3]: 214 nM

CC[C@H](C)[C@H](NC(=O)[C@H]1C[C@@H](C)CN1C)C(=O)N(C)[C@H](C[C@@H](OC(C)=O)c1nc(C(=O)N[C@@H](Cc2ccccc2)C[C@H](C)C(=O)O)cs1)C(C)C
GI50 [1]: 1.7 nM | GI50 [2]: 4.2 nM | GI50 [3]: 0.8 nM

CC[C@H](C)[C@H](NC(=O)[C@@H](C(C)C)N(C)CC)C(=O)N(C)[C@H](C[C@@H](OC(C)=O)c1nc(C(=O)N[C@@H](Cc2ccccc2)C[C@H](C)C(=O)O)cs1)C(C)C
GI50 [1]: 2940 nM | GI50 [2]: 3020 nM | GI50 [3]: 1640 nM

CC[C@H](C)[C@H](NC(=O)[C@H]1CCCCN1C)C(=O)N(C)[C@H](C[C@@H](OC(C)=O)c1nc(C(=O)N[C@@H](Cc2ccccc2)C[C@H](C)C(=O)NN)cs1)C(C)C
GI50 [1]: 6.63 nM | GI50 [2]: 5.24 nM | GI50 [3]: 6.09 nM

CC[C@H](C)[C@H](NC(=O)[C@H]1CCCCN1)C(=O)N(C)[C@H](C[C@@H](OC(C)=O)c1nc(C(=O)N[C@@H](Cc2ccccc2)C[C@H](C)C(=O)OC)cs1)C(C)C
GI50 [1]: 11.5 nM | GI50 [2]: 9.39 nM | GI50 [3]: 3.68 nM

CC[C@H](C)[C@H](NC(=O)[C@@H](CC(C)C)N(C)C)C(=O)N(C)[C@H](C[C@@H](OC(C)=O)c1nc(C(=O)N[C@@H](Cc2ccccc2)C[C@H](C)C(=O)O)cs1)C(C)C
GI50 [1]: 17 nM | GI50 [2]: 19.1 nM | GI50 [3]: 8.2 nM

CC[C@H](C)[C@H](NC(=O)C1(C)CCCCN1C)C(=O)N(C)[C@H](C[C@@H](OC(C)=O)c1nc(C(=O)N[C@@H](Cc2ccccc2)C[C@H](C)C(=O)O)cs1)C(C)C (some centres undefined)
GI50 [1]: 1.2 nM

CC[C@H](C)[C@H](NC(=O)[C@@H](C(C)C)N(C)C)C(=O)N(C)[C@H](C[C@@H](OC(C)=O)c1nc(C(=O)N[C@@H](Cc2ccccc2)C[C@H](C)C(=O)O)cs1)C(C)C
GI50 [1]: 9.6 nM | GI50 [2]: 10.7 nM | GI50 [3]: 4.4 nM

CC[C@H](C)[C@H](NC(=O)[C@@H](Cc1ccccc1)N(C)C)C(=O)N(C)[C@H](C[C@@H](OC(C)=O)c1nc(C(=O)N[C@@H](Cc2ccccc2)C[C@H](C)C(=O)O)cs1)C(C)C
GI50 [1]: 134 nM | GI50 [2]: 225 nM | GI50 [3]: 103 nM

CC[C@H](C)[C@H](NC(=O)[C@H]1CCCCN1C)C(=O)N(C)[C@H](C[C@@H](O)c1nc(C(=O)N[C@@H](Cc2ccccc2)C[C@H](C)C(=O)O)cs1)C(C)C
GI50 [1]: 363 nM | GI50 [2]: 169 nM | GI50 [3]: 110 nM

CC[C@H](C)[C@H](NC(=O)[C@H]1CCCCN1C)C(=O)N(C)[C@H](C[C@@H](OC(C)=O)c1nc(C(=O)N[C@@H](Cc2ccccc2)C[C@H](C)C(=O)O)cs1)C(C)C
GI50 [1]: 0.71 nM | IC50 [4]: 0.19 nM | GI50 [2]: 1.14 nM | IC50 [5]: 1.6 nM | IC50 [6]: 0.34 nM | GI50 [3]: 0.62 nM | IC50 [7]: 0.02 nM

CCCN(C)[C@@H](C(=O)N[C@H](C(=O)N(C)[C@H](C[C@@H](OC(C)=O)c1nc(C(=O)N[C@@H](Cc2ccccc2)C[C@H](C)C(=O)O)cs1)C(C)C)[C@@H](C)CC)C(C)C
GI50 [1]: > 3330 nM | GI50 [2]: > 3330 nM | GI50 [3]: > 3330 nM

CC[C@H](C)[C@H](NC(=O)[C@H]1CSCN1C)C(=O)N(C)[C@H](C[C@@H](OC(C)=O)c1nc(C(=O)N[C@@H](Cc2ccccc2)C[C@H](C)C(=O)O)cs1)C(C)C
GI50 [1]: 1120 nM | GI50 [2]: 816 nM | GI50 [3]: 352 nM

CC[C@H](C)[C@H](NC(=O)[C@H]1CCCCN1CCN)C(=O)N(C)[C@H](C[C@@H](OC(C)=O)c1nc(C(=O)N[C@@H](Cc2ccccc2)C[C@H](C)C(=O)O)cs1)C(C)C
GI50 [1]: 176 nM | GI50 [2]: 243 nM | GI50 [3]: 174 nM

CC[C@H](C)[C@H](NC(=O)[C@H]1CCc2ccccc2N1C)C(=O)N(C)[C@H](C[C@@H](OC(C)=O)c1nc(C(=O)N[C@@H](Cc2ccccc2)C[C@H](C)C(=O)O)cs1)C(C)C
GI50 [1]: > 3330 nM | GI50 [2]: > 3330 nM | GI50 [3]: > 3330 nM

CC[C@H](C)[C@H](NC(=O)[C@H]1CCCN1C)C(=O)N(C)[C@H](C[C@@H](OC(C)=O)c1nc(C(=O)N[C@@H](Cc2ccccc2)C[C@H](C)C(=O)O)cs1)C(C)C
GI50 [1]: 1 nM | GI50 [2]: 3.3 nM | GI50 [3]: 0.6 nM

CC[C@H](C)[C@H](NC(=O)[C@H]1CSCCN1C)C(=O)N(C)[C@H](C[C@@H](OC(C)=O)c1nc(C(=O)N[C@@H](Cc2ccccc2)C[C@H](C)C(=O)O)cs1)C(C)C
GI50 [1]: 166 nM | GI50 [2]: 226 nM | GI50 [3]: 69.3 nM

CC[C@H](C)[C@H](NC(=O)[C@H]1CCCCN1C(C)=O)C(=O)N(C)[C@H](C[C@@H](OC(C)=O)c1nc(C(=O)N[C@@H](Cc2ccccc2)C[C@H](C)C(=O)O)cs1)C(C)C
GI50 [1]: > 3330 nM | GI50 [2]: > 3330 nM | GI50 [3]: 798 nM

CC[C@H](C)[C@H](NC(=O)[C@H]1CCCCN1C)C(=O)N(C)[C@H](C[C@@H](OC(C)=O)c1nc(C(=O)N[C@@H](Cc2ccccc2)C[C@H](C)C(N)=O)cs1)C(C)C
GI50 [1]: 0.948 nM | GI50 [2]: 1.06 nM | GI50 [3]: 0.737 nM

CC[C@H](C)[C@H](NC(=O)[C@H]1CCSCN1C)C(=O)N(C)[C@H](C[C@@H](OC(C)=O)c1nc(C(=O)N[C@@H](Cc2ccccc2)C[C@H](C)C(=O)O)cs1)C(C)C
GI50 [1]: 136 nM | GI50 [2]: 125 nM | GI50 [3]: 64.2 nM

CC[C@H](C)[C@H](NC(=O)[C@H]1CCCCN1)C(=O)N(C)[C@H](C[C@@H](OC(C)=O)c1nc(C(=O)N[C@@H](Cc2ccccc2)C[C@H](C)C(=O)O)cs1)C(C)C
GI50 [1]: 46.2 nM | GI50 [2]: 19.6 nM | GI50 [3]: 21.3 nM

CC[C@H](C)[C@H](NC(=O)[C@H]1C[C@H](C)CCN1C)C(=O)N(C)[C@H](C[C@@H](OC(C)=O)c1nc(C(=O)N[C@@H](Cc2ccccc2)C[C@H](C)C(=O)O)cs1)C(C)C
GI50 [1]: 0.9 nM | GI50 [2]: 3.4 nM | GI50 [3]: 0.5 nM

CC[C@H](C)[C@H](NC(=O)[C@H]1COCCN1C)C(=O)N(C)[C@H](C[C@@H](OC(C)=O)c1nc(C(=O)N[C@@H](Cc2ccccc2)C[C@H](C)C(=O)O)cs1)C(C)C
GI50 [1]: 808 nM | GI50 [2]: 998 nM | GI50 [3]: 408 nM

CC[C@H](C)[C@H](NC(=O)[C@H]1COCCN1)C(=O)N(C)[C@H](C[C@@H](OC(C)=O)c1nc(C(=O)N[C@@H](Cc2ccccc2)C[C@H](C)C(=O)O)cs1)C(C)C
GI50 [1]: 2280 nM | GI50 [2]: > 3330 nM | GI50 [3]: 1380 nM

CC[C@H](C)[C@H](NC(=O)[C@@H](c1ccccc1)N(C)C)C(=O)N(C)[C@H](C[C@@H](OC(C)=O)c1nc(C(=O)N[C@@H](Cc2ccccc2)C[C@H](C)C(=O)O)cs1)C(C)C
GI50 [1]: 82.3 nM | GI50 [2]: 111 nM | GI50 [3]: 52.5 nM

CC[C@H](C)[C@H](NC(=O)[C@@H]1CC(C)(C)CCN1C)C(=O)N(C)[C@H](C[C@@H](OC(C)=O)c1nc(C(=O)N[C@@H](Cc2ccccc2)C[C@H](C)C(=O)O)cs1)C(C)C
GI50 [1]: 50.6 nM | GI50 [2]: 118 nM | GI50 [3]: 88 nM

CC[C@H](C)[C@H](NC(=O)[C@H]1CC(C)(C)CCN1C)C(=O)N(C)[C@H](C[C@@H](OC(C)=O)c1nc(C(=O)N[C@@H](Cc2ccccc2)C[C@H](C)C(=O)O)cs1)C(C)C
GI50 [1]: 1.3 nM | GI50 [2]: 3.9 nM | GI50 [3]: 1.8 nM
